Source: patent US4957927A, “(Diarylmethoxy alkyl)-1-pyrrolidines and piperidines having cardiovascular activity” (Lipha, Lyonnaise Industrielle Pharmaceutique, priority 1988, dated 1990)
Structures can show the parent of a compound that is named as a salt.

Key:
[1] = system: isolated depolarized artery of the rabbit's ear; test: decrease in perfusion pressure (calcium-inhibitive effect) on the isolated depolarized artery of the rabbit's ear; conditions: Table 1; single dose of 10 μg injected into the perfusion system; hyperpotassic depolarizing solution; average of at least three artery fragments; measured at peak of action
Description: The calcium-inhibitive effect was researched in vitro using the method described by J. M. Van Neuten (Eur. J. Pharmacol., 1969, 6, 286) on the isolated depolarized artery of the rabbit's ear:
A fragment of the central artery of the ear was cannulated and suspended in 100 ml of a Tyrode solution [NaCl: 136.90 mmole/l; KCl: 2.68 mmole/l; CaCl2 : 3.60 mmole/l; MgCl2 : 1.04 mmole/l; NaH2 PO4 : 0.42 mmole/l; glucose: 5.55 mmole/l, NaHCO3 : 11.90 mmole/l ]. The fragment was oxygenated (O2 : 95%; CO2 : 5%) and perfused with a constant 2-ml/minute flow of Tyrode at 37° C. Pressure changes in the perfusion circuit were recorded continuously using a pressure sensor. After an equilibration period, the Tyrode was replaced with a hyperpotassic depolarizing solution [NaCl: 39.33 mmole/l; KCl: 99.83 mmole/l; CaCl2 : 3.60 mmole/l; MgCl2 : 1.04 mmole/l; NaH2 PO4 : 0.42 mmole/l; glucose: 5.55 mmole/l; NaHCO3 : 11.90 mmole/l ], which, because of intracellular calcium penetration, caused significant and durable vasoconstriction, antagonized by a calcium inhibitor. The products according to the invention were tested in a single dose of 10 μg administered by injection into the perfusion system, at a rate of 0.1 ml for 10 seconds. […] The effects of the products according to the invention on vasoconstriction induced by the hyperpotassic solution were monitored for several hours. The intensity was measured at the peak of their action.
Each product was tested on at least three artery fragments. Table I includes the average decreases in perfusion pressure observed for a few products according to the invention.

calmodulin = calmodulin (Bos taurus, UniProt P62157); test: anti-calmodulin activity (calmodulin activation of Type I cardiac phosphodiesterase); assay type: biochemical
Description: The principle of the method used is the activating effect calmodulin has on the basic enzyme activity of Type I cardiac phosphodiesterase (H. C. Ho et al., Biochim. Biophys. Acta 1976, 429, 461). Enzyme activity is measured using the W. J. Thomson and H. M. Appleman technique (Biochemistry, 1971, 10, 311).

[2] = acute oral toxicity (lethal dose 50) in rats; conditions: rat, in vivo
Source text: Thus, the compound in example 10 has a lethal dose 50 in rats greater than 1 g/kg when administered orally.

Row | Compound | % drop in perfusion pressure ± standard error [1] [%] | IC50 (calmodulin) [µM] | LD50 [2] [mg/kg]
1 | COc1cccc(C2CCN(CCOC(c3ccccc3)c3ccccc3)C2)c1.O=C(O)C(=O)O (stereo not shown) [Example 1, 1-[2-(diphenylmethoxy)ethyl]-3-(3-methoxyphenyl)pyrrolidine oxalate] | 56 ± 6 | – | –
2 | COc1ccc(C2CCN(CCOC(c3ccccc3)c3ccccc3)C2)cc1OC (stereo not shown) [Example 4, 3-(3,4dimethoxyphenyl)-1-[2-diphenylmethoxy)ethyl]pyrrolidine oxalate] | 54 ± 5 | – | –
3 | COc1cccc(C2CCN(CCOC(c3ccc(F)cc3)c3ccc(F)cc3)C2)c1 (stereo not shown) [Example 10, 1-[2-[bis(4-fluorophenyl)methoxy]ethyl]-3-(3-methoxyphenyl)pyrrolidine] | 59 ± 4 | 83 | > 1000
4 | COc1cccc(C2CCCN2CCOC(c2ccccc2)c2ccccc2)c1 (stereo not shown) [Example 11, 1-[2-(diphenylmethoxy)ethyl]-2-(3-methoxyphenyl)pyrrolidine] | 56 ± 5 | – | –
5 | COc1ccccc1C1CCN(CCOC(c2ccccc2)c2ccccc2)C1 (stereo not shown) [Example 13, 1-[2-diphenylmethoxy)ethyl]-3-(2-methoxyphenyl) pyrrolidine maleate] | 58 ± 5 | – | –
6 | CC(C)Oc1cccc(C2CCN(CCOC(c3ccc(F)cc3)c3ccc(F)cc3)C2)c1 (stereo not shown) [Example 14, 1-[2-[bis(4-fluorophenyl)methoxy]ethyl]-3-(3-isopropoxyphenyl)pyrrolidine] | 54 ± 5 | – | –
7 | COc1cc(OC)cc(C2CCN(CCOC(c3ccc(F)cc3)c3ccc(F)cc3)C2)c1 (stereo not shown) [Example 15, 1-[2-[bis(4-fluorophenyl)methoxy]ethyl]-3-(3,5-dimethoxyphenyl)pyrrolidine fumarate] | 52 ± 5 | – | –
8 | Fc1ccc(C(c2ccc(F)cc2)N2CCN(C/C=C/c3ccccc3)CC2)cc1 [flunarizine, reference compound] | 41 ± 4 | – | –
